Laboratory results reported in ChEMBL document CHEMBL3421579, “Absolute configuration of labdane diterpenoids from Physalis nicandroides” (J Nat Prod, 2015).

How the values were obtained:
[1] = system: Mus musculus; assay: Anti-inflammatory activity in CD1 mouse model of TPA-induced ear edema assessed as inhibition of ear edema at 0.1 to 1 umol/ear applied to right ear 10 mins after TPA-stimulation and measured 4 hrs post compound dose; assay type: functional, organism-based
[2] = system: Mus musculus; assay: Anti-inflammatory activity in CD1 mouse model of TPA-induced ear edema assessed as inhibition of ear edema at 1 umol/ear applied to right ear 10 mins after TPA-stimulation and measured 4 hrs post compound dose; assay type: functional
[3] = system: Mus musculus; assay: Anti-inflammatory activity in CD1 mouse model of TPA-induced ear edema assessed as inhibition of ear edema at 0.1 to 1 umol/ear applied to right ear 10 mins after TPA-stimulation and measured 4 hrs post compound dose relative to indomethacin; assay type: functional

IC50 [1]	Compound	inhibition (INH) [2]	Ratio IC50 [3]
0.67 µmol	C/C(=C\CO)CC[C@@H]1[C@@]2(C)CCCC(C)(C)[C@@H]2CC[C@@]1(C)O	64.32%	2
	C=C1CC[C@H]2C(C)(C)CCC[C@]2(C)[C@H]1CC/C(=C/CO)CO	41.35%	
0.297 µmol	COc1ccc2c(c1)c(CC(=O)O)c(C)n2C(=O)c1ccc(Cl)cc1 [INDOMETHACIN]		
